Results published in BindingDB's records for doi:10.1074/jbc.M114.556381 (Central South University, 2014).

Biological target: Prokineticin receptor 2 (Homo sapiens, UniProt Q8NFJ6)
Assay: Calcium Mobilization Assay
Details: pH 7.5; 37 °C
Method: Briefly, Chinese hamster ovary cells stably expressing the photoprotein aequorin were transiently transfected with WT or respective mutant PKR2-expressing plasmids. Two days after transfection, the cells were charged in Opti-MEM (Invitrogen) containing 8 μM coelenterazine cp (Invitrogen) at 37 °C for 2 h. Cells were detached by brief trypsinization and maintained in assay buffer (Hanks' balanced salt solution plus 10 mM HEPES, pH 7.5, and 0.1% bovine serum albumin) at approximately 5 × 10^5 cells/ml. Luminescence measurements were made using a Sirius Single Tube Luminometer (Berthold Detection Systems GmbH, Pforzheim, Germany). PK2 was serially diluted in assay buffer and mixed with cells. The luminescence was monitored for 35 s (peak 1), then 100 μl of 1% Triton X-100 was injected to lyse the cells, and the luminescence was monitored continuously for another 20 s (peak 2). The area under the curve of the peak 1 was divided by the total area under the curve of peaks 1 and 2, and the maximal responses from WT receptors were normalized to 100.

Chain of Prokineticin receptor 2 (Q8NFJ6 whole entry): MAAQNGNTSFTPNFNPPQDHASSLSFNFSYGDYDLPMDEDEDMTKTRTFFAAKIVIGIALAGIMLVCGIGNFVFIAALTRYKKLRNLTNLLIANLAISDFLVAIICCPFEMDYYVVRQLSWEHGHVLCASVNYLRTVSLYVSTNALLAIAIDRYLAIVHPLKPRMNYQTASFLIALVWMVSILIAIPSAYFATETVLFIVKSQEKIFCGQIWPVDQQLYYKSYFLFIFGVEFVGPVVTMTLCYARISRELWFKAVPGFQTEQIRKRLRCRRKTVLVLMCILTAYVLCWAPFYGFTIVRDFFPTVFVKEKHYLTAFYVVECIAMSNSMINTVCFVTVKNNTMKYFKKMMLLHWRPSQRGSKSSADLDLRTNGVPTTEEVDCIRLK

- IC50: 102 nM
SMILES: CC(C)CN(Cc1cc(Cl)c2c(c1)OCCCO2)C(=O)C1CCN(Cc2ccccc2)C1 (racemic) [US8722896, (+/-)-1-Benzyl-N-(9-chloro-3,4-dihydro-2H-1,5-benzodioxepin-7-ylmethyl)-N-isobutylpyrrolidine-3-carboxamide]
